This passage reports Activity, IC50 and T1/2 results from ChEMBL document CHEMBL5550138, “Histidine-Covalent Stapled Alpha-Helical Peptides Targeting hMcl-1” (J Med Chem, 2024).

Activity calls are given as the source filed them. The calls are words filed in the database; no cut-off is given here. Positions of bridges follow the written chain, without caps; N, C: chain ends. Non-standard residues stand in square brackets, D forms with d. Residues, ends and D or L forms follow the SMILES beside them. *: point of attachment. Benzoyl(2-OMe,5-SO2F) = COc1ccc(S(=O)(=O)F)cc1C(=O)*; S5 = C=CCCC[C@](C)(N)C(=O)O; Dap = NC[C@H](N)C(=O)O

The test system of data set [1] is A549. Nature of the data set: Induction of apoptosis in NucLight Red-labeled human A549 cells assessed as decrease in cell viability at 10 uM measured for 24 to 72 hrs by IncuCyte S3 live cell analysis. Format: functional, cell-based. The settings on record: time 24-72 hrs.
Data set [2] relates to A549. Nature of the data set: Potentiation of etoposide-induced apoptosis in NucLight Red-labeled human A549 cells assessed as decrease in cell viability at 10 uM measured for 24 to 72 hrs in presence of etoposide by IncuCyte S3 live cell analysis. The settings on record: time 24-72 hrs. The format is functional, cell-based.
Data set [3] relates to A549. Nature of the data set: Induction of cell lysis in NucLight Red-labeled human A549 cells assessed as cell bursting at 100 uM measured after 20 mins by IncuCyte S3 live cell analysis based fluorescence microscopy. Format: toxicity. Particulars: a549, 20 min.
Data set [4] deals with T1, Induced myeloid leukemia cell differentiation protein Mcl-1 (Homo sapiens, UniProt Q07820). Nature of the data set: Covalent binding affinity to N-terminal His6-tagged human Mcl-1 ligand binding domain (172 to 323 residues) expressed in Escherichia coli BL21(DE3) gold pLysS cells assessed as stable covalent adduct formation by measuring band shift at 100 uM incubated for 16 hrs by SDS PAGE analysis.

The target of data set [5] is T1, Induced myeloid leukemia cell differentiation protein Mcl-1. Nature of the data set: Covalent binding affinity to N-terminal His6-tagged human Mcl-1 ligand binding domain (172 to 323 residues) expressed in Escherichia coli BL21(DE3) gold pLysS cells assessed as increase in mass of protein at 100 uM incubated for 16 hrs by LC-MS analysis.
The target is the same in data set [6]. Nature of the data set: Covalent binding affinity to His252 residue of N-terminal His6-tagged 13C(epsilon)-methionine-labeled human Mcl-1 ligand binding domain (172 to 323 residues) expressed in Escherichia coli BL21(DE3) gold pLysS cells assessed as chemical shift perturbations by measuring 13C/1H methyl resonances for binding site Met250 residue at 100 uM by 2D [1H,13C]-aliphatic NMR spectroscopy.

Data set [7] has the same target. The data set can be described thus: Displacement of biotinylated BH3 peptide from N-terminal His6-tagged human Mcl-1 ligand binding domain (172 to 323 residues) expressed in Escherichia coli BL21(DE3) gold pLysS cells preincubated with protein for 2 hrs followed by incubation with BH3 peptide for 2 hrs by DELFIA assay.
The target is the same in data set [8]. Nature of the data set: Covalent binding affinity to His residues of Mcl-1 in NucLight Red-labeled human A549 cell lysates assessed as stable adduct formation by measuring band shift at 100 uM incubated for 3 hrs by western blot analysis. Format: subcellular. In general terms: A western blot detects proteins with antibodies after separation by electrophoresis.

Data set [9] deals with T2, Bcl-2-related protein A1 (Homo sapiens) (UniProt Q16548).
T2 sequence (whole entry): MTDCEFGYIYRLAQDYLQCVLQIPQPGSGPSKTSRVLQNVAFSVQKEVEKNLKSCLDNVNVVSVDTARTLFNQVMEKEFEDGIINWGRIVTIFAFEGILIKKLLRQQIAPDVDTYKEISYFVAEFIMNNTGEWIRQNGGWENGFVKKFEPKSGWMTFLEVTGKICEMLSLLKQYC
Nature of the data set: Covalent binding affinity to N-terminal His6-tagged human Bfl-1 (1 to 149 residues) assessed as band shift at 100 uM incubated for 16 hrs by SDS PAGE analysis.

Data set [10] has as its system A549. Nature of the data set: Potentiation of etoposide-induced apoptosis in NucLight Red-labeled human A549 cells assessed as decrease in cell viability at 50 uM measured for 24 to 72 hrs in presence of etoposide by IncuCyte S3 live cell analysis. Format: functional, cell-based. The settings on record: time 24-72 hrs.
Data set [11] addresses T1, Induced myeloid leukemia cell differentiation protein Mcl-1. Nature of the data set: Covalent binding affinity to His residues of Mcl-1 in intact NucLight Red-labeled human A549 cells assessed as stable adduct formation by measuring band shift at 50 to 100 uM incubated for 12 hrs with treatment replenishment for every 3 hrs by western blot analysis. Format: cell-based. The settings on record: dose 50-100 µM.

For data set [12] the target is unchanged. Nature of the data set: Covalent binding affinity to N-terminal His6-tagged human Mcl-1 ligand binding domain (172 to 323 residues) expressed in Escherichia coli BL21(DE3) gold pLysS cells assessed as stable covalent adduct formation by measuring reaction half life at 100 uM incubated for 16 hrs by SDS PAGE analysis.
Data set [13] shares this target. Nature of the data set: Covalent binding affinity to 15N-labeled human Mcl-1 ligand binding domain (172 to 323 residues) assessed as His252 resonance at 250 uM in presence of BIM BH3 peptide by 2D[15N,1H]HMQC spectroscopy.
The target is the same in data set [14]. Nature of the data set: Covalent binding affinity to N-terminal His6-tagged human Mcl-1 ligand binding domain (172 to 323 residues) expressed in Escherichia coli BL21(DE3) gold pLysS cells assessed as stable covalent adduct formation by measuring reaction half life at 100 uM incubated for 16 hrs by LC-MS analysis.
Data set [15] has the same target. Nature of the data set: Covalent binding affinity to 15N-labeled human Mcl-1 ligand binding domain (172 to 323 residues) assessed as broadening of binding site His224 resonance at 250 uM in presence of BIM BH3 peptide by 2D[15N,1H]HMQC spectroscopy.
Data set [16] concerns the target T2, Bcl-2-related protein A1 (Homo sapiens). The data set can be described thus: Displacement of biotinylated BH3 peptide from N-terminal His6-tagged human Bfl-1 (1 to 149 residues) preincubated with protein for 2 hrs followed by incubation with BH3 peptide for 2 hrs by DELFIA assay. The settings on record: time 4.0 hrs.
Data set [17] is filed under the species Homo sapiens. The data set can be described thus: Covalent binding affinity to N-terminal His6-tagged human Mcl-1 ligand binding domain (172 to 323 residues) Lys234Ala mutant expressed in Escherichia coli BL21(DE3) gold pLysS cells assessed as increase in mass of protein at 100 uM incubated for 16 hrs by LC-MS analysis.
Data set [18] concerns the target T1, Induced myeloid leukemia cell differentiation protein Mcl-1. Nature of the data set: Covalent binding affinity to His252 residue of N-terminal His6-tagged 13C(epsilon)-methionine-labeled human Mcl-1 ligand binding domain (172 to 323 residues) expressed in Escherichia coli BL21(DE3) gold pLysS cells assessed as chemical shift perturbations by measuring 1H methyl resonances for binding site Thr259 and Ile181 residues at 100 uM by 1D 1H-aliphatic NMR spectroscopy.

Data set [19] is filed under the species Homo sapiens. The data set can be described thus: Covalent binding affinity to N-terminal His6-tagged human Mcl-1 ligand binding domain (172 to 323 residues) His252Ala mutant expressed in Escherichia coli BL21(DE3) gold pLysS cells assessed as stable covalent adduct formation by measuring band shift at 100 uM incubated for 16 hrs by SDS PAGE analysis.
The species entered for data set [20] is Homo sapiens. The data set can be described thus: Covalent binding affinity to N-terminal His6-tagged human Mcl-1 ligand binding domain (172 to 323 residues) Lys234Ala mutant expressed in Escherichia coli BL21(DE3) gold pLysS cells assessed as stable covalent adduct formation by measuring band shift at 100 uM incubated for 16 hrs by SDS PAGE analysis.
Data set [21] deals with A549. Nature of the data set: Induction of apoptosis in NucLight Red-labeled human A549 cells assessed as decrease in cell viability at 50 uM measured for 24 to 72 hrs by IncuCyte S3 live cell analysis. Format: functional, cell-based. The settings on record: time 24-72 hrs.

T1 sequence (Q07820 whole entry, the tested form may be a part): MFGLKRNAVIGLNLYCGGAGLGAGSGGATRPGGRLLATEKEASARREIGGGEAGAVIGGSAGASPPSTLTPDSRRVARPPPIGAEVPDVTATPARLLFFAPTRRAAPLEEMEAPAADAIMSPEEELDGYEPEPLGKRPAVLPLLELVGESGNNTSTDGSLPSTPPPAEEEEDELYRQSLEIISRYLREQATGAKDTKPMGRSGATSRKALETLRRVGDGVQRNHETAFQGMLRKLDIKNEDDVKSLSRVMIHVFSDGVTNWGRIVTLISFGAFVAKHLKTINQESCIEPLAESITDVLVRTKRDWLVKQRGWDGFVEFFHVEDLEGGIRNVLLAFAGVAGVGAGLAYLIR

Turning to `Cc1nn(C)c(COc2ccc(N3CCN(S(=O)(=O)N(C)C)CC3)cc2)c1-c1cccc2c(CCCOc3cccc4ccccc34)c(C(=O)O)n(CCN3CCOCC3)c12`, in data set [1], the outcome was inactive. Also, the outcome in data set [2] was Active.
As for `CC[C@H](C)[C@H](NC(=O)[C@H](CNC(=O)c1cc(S(=O)(=O)F)ccc1OC)NC(C)=O)C(=O)N[C@@H](C)C(=O)N[C@@H](CCC(=O)O)C(=O)N[C@@H](CCC(N)=O)C(=O)N[C@@H](CC(C)C)C(=O)N[C@@H](CCCNC(=N)N)C(=O)N[C@@]1(C)CCC/C=C\CCC[C@@](C)(C(=O)N[C@@H](Cc2ccccc2)C(N)=O)NC(=O)[C@H](CC(=O)O)NC(=O)CNC(=O)[C@H]([C@@H](C)CC)NC1=O` (Ac-[Dap](Benzoyl(2-OMe,5-SO2F))IAEQLR[S5]IGD[S5]F-NH2; staple (Z) 8-12), the results for the Activity result in data set [3], in data set [5] and in [17] were “Non-Toxic”, 1740 Da and 1740 Da, respectively. Moreover, the result in [4], in data set [6], in [8], in data set [10], in data set [11] and in [13] was Active. Further, the result in data set [15], in [18], in data set [19] and in data set [20] was Active. Moreover, the IC50 in [7] was determined as 18 nM. In addition, the result in [9], in data set [16] and in [21] was inactive. Further, the T1/2 in [12] and in [14] was 6 h each time.
For `CC[C@H](C)[C@H](NC(=O)[C@H](CCCNC(=N)N)NC(=O)[C@H](CCCNC(=N)N)NC(=O)[C@H](CC(C)C)NC(=O)[C@H](CCC(N)=O)NC(=O)[C@]1(C)CCC/C=C/CCC[C@](C)(NC(C)=O)C(=O)N[C@@H](CNC(=O)c2cc(S(=O)(=O)F)ccc2OC)C(=O)N[C@@H]([C@@H](C)CC)C(=O)N[C@@H](C)C(=O)N1)C(=O)NCC(=O)N[C@@H](CC(=O)O)C(=O)N[C@@H](CCCNC(=N)N)C(=O)N[C@@H](Cc1ccccc1)C(N)=O` (Ac-[S5][Dap](Benzoyl(2-OMe,5-SO2F))IA[S5]QLRRIGDRF-NH2; staple (E) 1-5), in data set [3], the Activity result is “Toxic”. The result in [4], in data set [19] and in data set [20] was Active. In [7], the half-inhibitory concentration (IC50) came out at 24 nM. The outcome in data set [9] was inactive.

What is called IC50 is the concentration needed to halve the response being measured. Low values mean greater potency in that assay, high ones weaker potency in that assay.
